Here are results for 9 compounds from ChEMBL document CHEMBL1151046, “Selective cyclooxygenase inhibitors: Novel 4-spiro 1,2-diarylcyclopentenes are potent and orally active cox-2 inhibitors” (Bioorg Med Chem Lett, 1995).

A short description of one series: physchem. Particulars: octanol/water.
For series [1], the target named is Prostaglandin G/H synthase 1 (Homo sapiens, UniProt P23219).
The species named for series [2] is Rattus norvegicus. In words: animal or person. It counts as functional. Particulars: po.
The species named for series [3] is Rattus norvegicus. In words: animal or person. To be noted: po, read-out: Inhibition.
For series [4], the species on record is Rattus norvegicus. It counts as functional, Stomach.

Chain of Prostaglandin G/H synthase 1 (P23219 whole entry): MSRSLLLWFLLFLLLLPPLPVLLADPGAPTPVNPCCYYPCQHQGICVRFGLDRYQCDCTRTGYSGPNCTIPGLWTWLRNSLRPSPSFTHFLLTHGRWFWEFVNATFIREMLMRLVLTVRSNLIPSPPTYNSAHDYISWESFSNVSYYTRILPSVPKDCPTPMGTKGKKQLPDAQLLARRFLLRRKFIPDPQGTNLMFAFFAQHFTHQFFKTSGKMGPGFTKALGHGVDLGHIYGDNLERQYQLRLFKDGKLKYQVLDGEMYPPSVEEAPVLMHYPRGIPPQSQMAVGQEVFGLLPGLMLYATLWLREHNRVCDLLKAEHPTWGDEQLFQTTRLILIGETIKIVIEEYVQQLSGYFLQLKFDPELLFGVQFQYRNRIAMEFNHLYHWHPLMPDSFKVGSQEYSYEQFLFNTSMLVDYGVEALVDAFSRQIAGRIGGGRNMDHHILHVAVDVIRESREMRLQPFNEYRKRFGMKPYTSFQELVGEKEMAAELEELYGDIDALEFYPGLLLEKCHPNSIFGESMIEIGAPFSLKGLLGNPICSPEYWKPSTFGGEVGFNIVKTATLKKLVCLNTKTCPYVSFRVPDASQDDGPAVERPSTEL

`CS(=O)(=O)c1ccc(C2=C(c3ccc(F)cc3)CC3(CC3)C2)cc1`: in the series “physchem”, the logP is 4.5. Besides, the IC50 in series [1] stood at 5.4 µM. Also, the inhibition in vivo at 30 mg/kg in the series listed under Rattus norvegicus [2] worked out at 38%.
`CS(=O)(=O)c1ccc(C2=C(c3ccc(F)cc3)CC3(CCC3)C2)cc1` returned a logP in “physchem” of 4.9. Besides, the inhibition in vivo at 30 mg/kg in the series filed under Rattus norvegicus [2] was 23%.
Regarding `CC1(C)CC(c2ccc(F)cc2)=C(c2ccc(S(C)(=O)=O)cc2)C1`, in the series listed under Rattus norvegicus [3], the inhibition in vivo at 30 mg/kg was determined as 50%.
For `CS(=O)(=O)c1ccc(C2=C(c3ccc(F)cc3)CC3(CCCCC3)C2)cc1`, the IC50 in series [1] was above 100 µM.
The compound `NS(=O)(=O)c1ccc(C2=C(c3ccc(F)cc3)CC3(CCC3)C2)cc1` showed a log partition coefficient (logP) in “physchem” of 4.1. The compound also showed an inhibition in vivo at 30 mg/kg in the series filed under Rattus norvegicus [2] of 37%.
`NS(=O)(=O)c1ccc(C2=C(c3ccc(F)cc3)CC3(CC3)C2)cc1`: the logP in “physchem” worked out at 4. In addition, in the series listed under Rattus norvegicus [2], the inhibition in vivo at 30 mg/kg was 60%. Further, the Gastric lesions in the series filed under Rattus norvegicus [4] came to 10.
Consider `CS(=O)(=O)c1ccc(C2=C(c3ccc(F)cc3)CC3(CCCC3)C2)cc1`, for which the logP in the series “physchem” stood at 5.4.
Regarding `COc1ccc2c(c1)c(CC(=O)O)c(C)n2C(=O)c1ccc(Cl)cc1` [INDOMETHACIN], the inhibition in vivo at 30 mg/kg in the series listed under Rattus norvegicus [2] is 66%.
Regarding `CS(=O)(=O)Nc1ccc([N+](=O)[O-])cc1OC1CCCCC1` [NS-398], the inhibition in vivo at 30 mg/kg in the series filed under Rattus norvegicus [2] amounted to 60%.
